Data reported in PubChem BioAssay (NCI).
Several values for one entry are separate records, joined by “and”; a condition that tells them apart may be missing. Equal values may be shown once.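 1) Cells in 96-well plates. 2) Compound, 48 h, 5 concentrations. 3) Linear interpolation between surrounding doses. 4) Unreached endpoint = highest concentration. GI50 marks 50% less growth. The concentration for full growth arrest is given as TGI.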

Experiments:
Test in all cases: NCI-60 cell line screen, 48 h
[1] = system: NCI-H460 lung
[2] = system: NCI/ADR-RES ovarian
[3] = system: SK-MEL-2 melanoma
[4] = system: UACC-257 melanoma
[5] = system: MDA-MB-435
[6] = system: SW-620 colon
[7] = system: SNB-19 CNS
[8] = system: HOP-92 NSCLC
[9] = system: NCI-H226 lung
[10] = system: U251 CNS

SMILES | TGI [1] | TGI [2] | TGI [3] | TGI [4] | TGI [5] | TGI [6] | TGI [7] | TGI [8] | TGI [9] | TGI [10] | GI50 [1] | GI50 [2] | GI50 [3] | GI50 [4] | GI50 [5] | GI50 [6] | GI50 [7] | GI50 [8] | GI50 [9] | GI50 [10]
CC1(C)Oc2ccc3ccc(=O)oc3c2C(O)C1O (stereo not given) | > 100 µM | > 100 µM | > 100 µM | 94.9 µM | > 100 µM | > 100 µM | > 100 µM | > 100 µM | > 100 µM | > 100 µM |  |  |  |  |  |  |  |  |  | 
Cc1ccc(S(=O)(=O)ON2C(=O)c3cccc4cc([N+](=O)[O-])cc(c34)C2=O)cc1 | > 100 µM | > 100 µM | > 100 µM | > 100 µM | > 100 µM | > 100 µM | > 100 µM | > 100 µM | > 100 µM | > 100 µM |  |  |  |  |  |  |  |  |  | 
O=C1C2CCN(CC2)C1CN1CCOCC1 (stereo not given) | 33.7 µM | 3.41 µM | 32.5 µM | 10.2 µM | > 100 µM | 3.2 µM | 32.6 µM | 3.47 µM | 26.5 µM | 26.2 µM |  |  |  |  |  |  |  |  |  | 
CCSC[C@@H]1C[C@](O)(c2ccc(Cl)cc2)[C@@H](c2ccc(Cl)cc2)O1 | 34.1 µM | 43.6 µM | 35 µM | 30.1 µM | 40.1 µM | 33.6 µM | 50 µM | 36.9 µM | 37.3 µM | 36.2 µM | 17.3 µM | 20.5 µM | 16 µM | 15.1 µM | 19.2 µM | 14.4 µM | 18.8 µM | 20.9 µM | 17.8 µM | 18.3 µM
CN(C)c1ccc(/C=N/NC(N)=S)nc1 | 29.3 µM | > 100 µM | > 100 µM | > 100 µM | > 100 µM | > 100 µM | > 100 µM | > 100 µM | 52.7 µM | > 100 µM | 2.89 µM | 4.08 µM | > 100 µM | 24.4 µM | 4.01 µM | 3.14 µM | 5.64 µM | > 100 µM | 3.54 µM | 3.99 µM
O=C1c2c(c(=O)[nH]c3ccccc23)[C@H](c2ccccc2)[C@@H]2CCCN12 | 16.5 µM | 36.4 µM | 46.7 µM | 53 µM | 15.2 µM | > 100 µM | > 100 µM | 15.7 µM | 13.8 µM | 18.3 µM | 2.83 µM | 3.05 µM | 4.17 µM | 5.13 µM | 3.7 µM | 3.38 µM | 3.93 µM | 2.94 µM | 2.05 µM | 3.37 µM
COc1cc2nc(Nc3cccc(Cl)c3)nc(N)c2cc1OC | 15.5 µM | 33.9 µM | 28.5 µM | 4.48 µM | 9.71 µM | 7.15 µM | 28 µM | 14.6 µM | 29.5 µM | 9.96 µM | 4.09 µM | 7.61 µM | 8.28 µM | 2.11 µM | 2.81 µM | 2.68 µM | 14.6 µM | 2.59 µM | 16 µM | 3.08 µM
NC(=O)CC1OC(=O)Cc2cc3c(c(O)c21)C(=O)c1c(O)cccc1C3=O (stereo not given) | > 100 µM | > 100 µM | > 100 µM | > 100 µM | > 100 µM | > 100 µM | > 100 µM | > 100 µM | > 100 µM | > 100 µM |  |  |  |  |  |  |  |  |  | 
CCOC(=O)C(=Cc1ccc(C#N)cc1)C(=O)OCC | 16 µM | 23.4 µM | 4.19 µM | 5.63 µM | 4.79 µM | 4.72 µM | 7.7 µM | 4.26 µM | 6.33 µM | 4.89 µM | 4.2 µM | 3.33 µM | 1.93 µM | 2.41 µM | 1.98 µM | 2.1 µM | 2.66 µM | 1.63 µM | 2.51 µM | 2.15 µM
Cn1ncc(Cl)c1-c1cc(C(=O)N[C@H](CN)Cc2cccc(F)c2)sc1Cl | > 10 µM and 13.3 µM | > 7.74 µM and 23.5 µM | > 6.11 µM and 12.3 µM | 3.71 µM and 9.91 µM | > 5.99 µM and 12.7 µM | > 10 µM and 21 µM | 1.87 µM and 13.4 µM | 2.77 µM and 4.21 µM | > 10 µM and 32.2 µM | > 4.58 µM and 12.8 µM | 0.406 µM and 0.568 µM | 3.28 µM and 9.52 µM | 1.98 µM and 4.65 µM | 1.44 µM and 2.88 µM | 1.31 µM and 2.36 µM | 2.16 µM and 7.33 µM | 0.34 µM and 0.783 µM | 0.338 µM and 0.519 µM | > 4.48 µM and 11.6 µM | 0.346 µM and 0.742 µM
CCC(CC)n1cnc2c(-c3cnc(N)cn3)nc(N3CC4CCC(C3)O4)nc21 | > 100 µM | > 33.5 µM | 3.25 µM | 4.07 µM | 4.63 µM | > 100 µM | > 100 µM | 0.145 µM | > 100 µM | > 100 µM | 0.17 µM | 0.79 µM | 0.391 µM | 0.289 µM | 0.314 µM | 0.76 µM | 1.37 µM | 0.013 µM | 0.549 µM | 1.3 µM
Cc1cc(OCc2nnc3n2S(=O)(=O)c2ccccc2N3C)ccc1Cl | > 100 µM | > 100 µM | > 100 µM | > 100 µM | > 100 µM | > 100 µM | 39.1 µM | 36.4 µM | > 100 µM | 43.6 µM |  |  |  |  |  |  |  |  |  | 
O=S(=O)(N=C1C(Cl)=C(Cl)C(=NS(=O)(=O)c2ccccc2)C(Cl)=C1Cl)c1ccccc1 | 36.7 µM | > 100 µM | > 100 µM | 86.3 µM | 68.3 µM | 28 µM | > 100 µM | > 100 µM | 56.2 µM | 54 µM | 17.4 µM | 26.5 µM | 27.5 µM | 24 µM | 20.1 µM | 13.4 µM | 38.2 µM | 56.9 µM | 21.6 µM | 19.3 µM
CSc1ccc(C2=NN(C(C)=O)C(c3ccc(-c4cc(Cl)c(Cl)cc4Cl)o3)C2)cc1 (stereo not given) | 32.2 µM | 34.1 µM | 35.1 µM | 42.7 µM | 36.4 µM | 33.2 µM | 32.3 µM | 23.6 µM | 27.3 µM | 30.6 µM | 17.2 µM | 16.7 µM | 16.8 µM | 22.8 µM | 15.5 µM | 18.5 µM | 17.9 µM | 11.2 µM | 13.9 µM | 16.9 µM
